Results: publication PMC7309260, “Peptide Probes for Plasmodium falciparum MyoA Tail Interacting Protein (MTIP): Exploring the Druggability of the Malaria Parasite Motor Complex” (ACS Chemical Biology, 2020)
Like-named read-outs stand apart in the source and are kept apart here. Where a SMILES comes first, the peptide text is derived from it. Where no end group is shown, it is not given here. [ ]: non-standard residue; d: D form. The star is where a group is joined. 5FAM = O=C1OC2(c3ccc(O)cc3Oc3cc(O)ccc32)c2ccc(C(=O)*)cc21; Abu(3-Me-diazirin-3-yl) = CC1(CC[C@H](N)C(=O)O)N=N1

Key:
[1] = tested on: P. falciparum late schizonts; conditions: 10 μM peptide, 3 h
[2] = tested on: P. falciparum (3D7 strain); conditions: for uptake of polyarginines compared by chain length: flow cytometry (Figure 2c)
[3] = tested on: P. falciparum; conditions: read-out: EC50, P. falciparum reinvasion / cell viability; serial dilution of peptides in triplicate, egress in presence of peptide, flow cytometry at trophozoite stage, n = 3
[4] = molecular target: T1, PfMTIPΔ60 (Plasmodium falciparum, UniProt Q8I4W8); assay: biochemical; format: binding
T1 construct: PfMTIPΔ60 stocks were recombinantly expressed in E. coli BL21; made in house; host or cells: E. coli BL21

[5] = molecular target: T1, PfMTIPΔ60; assay: biochemical; format: binding; conditions: for n (ITC stoichiometry) / ΔH (ITC) / ΔS (ITC): 303 K, n = 2
[6] = tested on: P. falciparum; assay: microbe, parasite or virus in culture; conditions: Plasmodium falciparum, read-out: EC50, P. falciparum reinvasion control curve
[7] = 1% TX-100, densitometry, 2 µL loading
[8] = 1% TX-100, densitometry, 5 µL loading
[9] = 1% TX-100, densitometry, average of 2 µL and 5 µL loadings
[10] = densitometry, average of 2 µL and 5 µL loadings

With `CC[C@H](C)[C@H](NC(=O)[C@H](Cc1c[nH]cn1)NC(=O)[C@H](C)NC(=O)[C@H](CCC(N)=O)NC(=O)[C@@H](NC(=O)[C@H](CCCNC(=N)N)NC(=O)[C@H](CC(C)C)NC(=O)[C@H](CC(C)C)NC(=O)[C@H](CO)NC(=O)[C@@H]1CCCN1C(=O)[C@@H](NC(=O)[C@H](CC(N)=O)NC(=O)[C@H](CCCNC(=N)N)NC(=O)CNC(=O)c1ccc2c(c1)C(=O)OC21c2ccc(O)cc2Oc2cc(O)ccc21)[C@@H](C)CC)C(C)C)C(=O)N[C@@H](CCCNC(=N)N)C(=O)N[C@@H](CCCNC(=N)N)C(=O)N[C@@H](CCCNC(=N)N)C(=O)N[C@@H](CCSC)C(=O)N[C@H](C(N)=O)C(C)C` [F-ArgMy1] (5FAM-GRNIPSLLRVQAHIRRRMV-NH2) the “In vivo Conc, TX I (insoluble)” value [1, 7] was 0.06 µM, the “In vivo Conc, TX S (soluble)” value [1, 7] was 2.94 µM and the “In vivo Conc, TX I (insoluble)” value [1, 8] was 0.39 µM. The “In vivo Conc, TX S (soluble)” value [1, 8] was 7.17 µM, the “In vivo Conc, TX I (insoluble), Av.” value [1, 9] was 0.22 µM and the “In vivo Conc, TX S (soluble), Av.” value [1, 9] was 5.06 µM. For the same molecule, the “In vivo Conc, SLO S (soluble)” value ([1]; densitometry, 2 µL loading) was 2.03 µM, the “In vivo Conc, SLO I (insoluble)” value ([1]; densitometry, 5 µL loading) was 0.93 µM and the “In vivo Conc, SLO S (soluble)” value ([1]; densitometry, 5 µL loading) was 3.01 µM. For the same molecule, the “In vivo Conc, SLO I (insoluble), Av.” value [1, 10] was 0.51 µM, the “In vivo Conc, SLO S (soluble), Av.” value [1, 10] was 2.52 µM and the “In vivo Conc, SLO I (insoluble)” value ([1]; late schizonts, densitometry of in-gel fluorescence, 2 µL loading) was 0.10 µM. For the same molecule, the “fold improvement in uptake compared to F-My1” value ([2]; Pf3D7 early schizonts, flow cytometry (Figure 2d)) was 2 fold, the “permeability, share of all parasitized cells” value ([2]; midstage schizonts, flow cytometry) was “up to 50%” and the EC50 [3] was ~160000 nM. It also gave a Kd [4] of 3.9 nM.
Molecule `CC[C@H](C)[C@H](NC(=O)[C@H](Cc1c[nH]cn1)NC(=O)[C@H](CCCNC(=N)N)NC(=O)[C@H](CCC(N)=O)NC(=O)[C@@H](NC(=O)[C@H](C)NC(=O)[C@H](CC(C)C)NC(=O)[C@H](CCCNC(=N)N)NC(=O)[C@H](CO)NC(=O)[C@@H]1CCCN1C(=O)[C@@H](NC(=O)[C@H](CC(N)=O)NC(=O)[C@H](CC(C)C)NC(=O)CNC(=O)c1ccc2c(c1)C(=O)OC21c2ccc(O)cc2Oc2cc(O)ccc21)[C@@H](C)CC)C(C)C)C(=O)N[C@@H](CCCNC(=N)N)C(=O)N[C@@H](CCCNC(=N)N)C(=O)N[C@@H](CCCNC(=N)N)C(=O)N[C@@H](CCSC)C(=O)N[C@H](C(N)=O)C(C)C` [F-ArgMy2] (5FAM-GLNIPSRLAVQRHIRRRMV-NH2) has a Kd [4] of 4220 nM.
With `CC[C@H](C)[C@H](NC(=O)[C@H](Cc1c[nH]cn1)NC(=O)[C@H](C)NC(=O)[C@H](CCC(N)=O)NC(=O)[C@@H](NC(=O)[C@H](CCCNC(=N)N)NC(=O)[C@H](CC(C)C)NC(=O)[C@H](CC(C)C)NC(=O)[C@H](CO)NC(=O)[C@@H]1CCCN1C(=O)[C@@H](NC(=O)[C@H](CC(N)=O)NC(=O)[C@H](CCCCN)NC(=O)CNC(=O)c1ccc2c(c1)C(=O)OC21c2ccc(O)cc2Oc2cc(O)ccc21)[C@@H](C)CC)C(C)C)C(=O)N[C@@H](CCCNC(=N)N)C(=O)N[C@@H](CCCCN)C(=O)N[C@@H](CCCCN)C(=O)N[C@@H](CCSC)C(=O)N[C@H](C(N)=O)C(C)C` [F-My1] (5FAM-GKNIPSLLRVQAHIRKKMV-NH2) the Kd [5] was 57.1 ± 13 nM, the “n (ITC stoichiometry)” value [5] was 0.91 ± 0.01 and the “ΔH (ITC)” value [5] was -17.6 ± 0.22 kcal/mol. For the same molecule, the “ΔS (ITC)” value [5] was -104 J/K.mol and the EC50 [3] was ~160000 nM.
In the case of `CC[C@H](C)[C@H](NC(=O)[C@H](Cc1c[nH]cn1)NC(=O)[C@H](C)NC(=O)[C@H](CCC(N)=O)NC(=O)[C@@H](NC(=O)[C@H](CCCNC(=N)N)NC(=O)[C@H](CC(C)C)NC(=O)[C@H](CC(C)C)NC(=O)[C@H](CO)NC(=O)[C@@H]1CCCN1C(=O)[C@@H](NC(=O)[C@H](CC(N)=O)NC(=O)[C@H](CCCCN)NC(=O)CNC(=O)[C@H](CCC1(C)N=N1)NC(=O)c1ccc2c(c1)C(=O)OC21c2ccc(O)cc2Oc2cc(O)ccc21)[C@@H](C)CC)C(C)C)C(=O)N[C@@H](CCCNC(=N)N)C(=O)N[C@@H](CCCCN)C(=O)N[C@@H](CCCCN)C(=O)N[C@@H](CCSC)C(=O)N[C@H](C(N)=O)C(C)C` [F/D-My1] (5FAM-[Abu(3-Me-diazirin-3-yl)]GKNIPSLLRVQAHIRKKMV-NH2), the Kd [4] is reported as 3.4 nM.
`C[C@H]1[C@@H](O)O[C@@H]2O[C@@]3(C)CC[C@H]4[C@H](C)CC[C@@H]1[C@@]24OO3` [dihydroartemisin, Dihydroartemisinin] showed an EC50 [6] of 10 nM.
With FAM GRRRRRR -NH2 [F-Arg6] the “uptake of polyarginines compared by chain length” value (from here on “uptake … compared by chain length”) ([2]; Pf3D7 early schizonts) was “significant improvement over F-Arg4”.
With FAM GRRRRRRR -NH2 [F-Arg7] the “uptake … compared by chain length” value ([2]; Pf3D7 early schizonts) was “significantly greater than F-Arg6”.
In the case of FAM GRRRRRRRR -NH2 [F-Arg8], the “uptake compared with F-My1” value ([2]; Pf3D7 early schizonts ca. 35 h PI, flow cytometry, unpaired t test (Figure 2b)) is reported as “significantly greater permeability over F-My1” and the “uptake … compared by chain length” value ([2]; Pf3D7 early schizonts) is reported as “significantly greater than F-Arg6”.
“KNIPSLLRVQAHIRKKMV-NH2 (C-terminus assumed) [My1]” was tested, and the “n (ITC stoichiometry)” value [5] was 1.06 ± 0.01, the “ΔH (ITC)” value [5] was -15.9 ± 0.12 kcal/mol and the “ΔS (ITC)” value [5] was -85.9 J/K.mol.
